Peptide text beside a SMILES is read from it. * marks the point of attachment. Cbz = O=C(OCc1ccccc1)*
Assays:
BIN2 [1] = experiment: pTyr200 of BIN2 in plants after BL treatment; assay type: in vivo, Arabidopsis; settings: in the presence of MG132; 0.2 or 0.25 μM BL
Method: (§1) Plant materials were ground with liquid nitrogen and resuspended in IP buffer (50 mM Tris, pH 7.5, 150 mM NaCl, 5% Glycerol, 1% Triton X-100, 1 mM PMSF and 1× protease inhibitor cocktail (Sigma)). Filtered protein extracts were centrifuged at 20,000 g for 10 min and resulting supernatant was incubated with anti-GFP antibody bound Protein A beads or anti-myc agarose beads for 1 hr. Beads were washed 5 times with washing buffer (50 MM Tris, pH 7.5, 150 mM NaCl, 0.2% Triton X-100, 1 mM PMSF and 1× Protease inhibitor cocktail). The beads were resuspended with a small volume of kinase buffer (20 mM Tris, pH 7.5, 1 mM MgCl2, 100 mM NaCl and) mM DTT) and used for in vitro phosphatase assays, or immunoprecipitated proteins were eluted with buffer containing 2% SDS and analyzed by SDS-PAGE and immunoblotting.
GST-BIN2 or GST-bin2-1 was incubated with MBP-BSU1 or BSU1-YFP beads for 3 Ins and subjected to immunoblotting. pTyr200 residue of BIN2 was detected by anti-phospho-GSK3a/f3 (Tyr279/216) monoclonal antibody, 5G-2F (Millipore, Temecula, Calif.) and re-probed with HRP conjugated anti-GST antibody (Santa Cruz Biotechnology, Santa Cruz, Calif.). The det2 plants were treated with 0.2 μM BL after 1 hr incubation with 10 μM MG 132. AntiBIN2 serum was developed in rabbits using GST-BIN2 as an immunogen. Monoclonal anti-GSK3α/β antibody was purchased from Invitrogen (Carlsbad, Calif.).

BIN2 [2] = experiment: BIN2-myc / bin2-1-myc degradation in transgenic plants; assay type: in vivo, Arabidopsis
Method: as §1

AtSK12 [3] = experiment: AtSK12 protein accumulation in transgenic plants; assay type: in vivo, Arabidopsis; design: dose or concentration left out as unconfirmed; settings: AtSK12-myc plants; BRZ medium for 5 days; BL for 30 min
Method: as §1

AtSK12 [4] = experiment: pTyr dephosphorylation of AtSK12 in plants; assay type: in vivo, Arabidopsis; settings: 10 μM MG132 then 0.25 μM BL
Method: as §1

BIN2 [5] = experiment: BIN2-myc / bin2-1-myc protein level in transformed tobacco leaves; assay type: in vivo; settings: 1 μM BL for 1 hr
Method: Transformation by Agrobacterium infiltration, observations of subcellular localization and BiFC signal in tobacco or Arabidopsis were performed as described previously 5. Fluorescence of YFP was visualized by using a spinning-disk confocal microscope (Leica Microsystems, Heerbruag, Germany).

BIN2 [6] = biological target: T1, BIN2 (Arabidopsis thaliana, UniProt Q39011); experiment: In vitro BIN2 inhibition assay (BIN2 phosphorylation of BZR1); assay type: biochemical; settings: BSU1-YFP immunoprecipitated from plants treated with BL versus untreated plants
T1 construct: made in house; host or cells: E. coli
T1 sequence (Q39011 1-380): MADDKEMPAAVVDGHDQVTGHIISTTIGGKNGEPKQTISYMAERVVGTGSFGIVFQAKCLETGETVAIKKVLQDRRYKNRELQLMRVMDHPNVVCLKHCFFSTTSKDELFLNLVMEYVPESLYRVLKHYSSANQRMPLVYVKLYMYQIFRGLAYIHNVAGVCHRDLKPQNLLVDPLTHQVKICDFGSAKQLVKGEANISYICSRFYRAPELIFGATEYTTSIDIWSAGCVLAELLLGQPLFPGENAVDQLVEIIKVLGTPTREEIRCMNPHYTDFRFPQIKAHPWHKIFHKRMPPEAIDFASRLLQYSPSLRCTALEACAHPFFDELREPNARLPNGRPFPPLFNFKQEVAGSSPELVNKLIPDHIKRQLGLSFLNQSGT
Method: In vitro BIN2 inhibition assays were performed by 3 hrs co-incubation of MBP-BZR1, GST BIN2, GST BSU1 and ^32P-γATP or pre-incubation of GST-BIN2 with GST-BSU1 for various time followed by adding MBP-BZR1 and 32P-γATP. The examine activities of partial BSU1, N-terminal Kelch (1-363th amino acid) and C-terminal phosphatase (364-793th amino acid) region were used. GST, GST-BSU1, GSTBSU1-Ketch and GST-BSU1-phosphatase were pre-incubated with GST-BIN2 for 1 hr, and further incubated with MBP-BZR1 and ^32P-γATP for 3 hrs.
To test activities of BSU1-YFP, anti-GFP antibody-Protein A beads were used to immunoprecipitate BSU1-YFP from extracts of BSU1-YFP transgenic plants, and non-transgenic wild type plants were used as control. The beads were incubated with GST-BIN2 or GST bin2-1 for 1 hr, and then the beads were removed. The BSU1-treated GST-BIN2 or GST-bin2-1 was further incubated with MBP-BZR1 and ^32P-γATP for 3 hrs.

BIN2 [7] = experiment: Immunoblotting of 2-DE of TAP-BIN2 from BL-treated plants; assay type: in vivo, Arabidopsis; settings: 0.25 μM BL, 2 hrs, TAP-BIN2 transgenic plants
Excerpt: Total proteins were extracted from BL-treated or untreated 35S::TAP-BIN2 plants for two-dimensional gel electrophoresis (2-DE) as described previously. The amount of BL-treated and untreated TAP-BIN2 proteins was normalized with Western blot. Equal amount of TAP-BIN2 proteins was separated by 2-DE using an immobilized pH gradient gel strip (7 cm, pH 3-10 non-linear) and 7.5% SDS-PAGE gel. The blots were probed with anti-PAP antibody (Sigma, St. Louis, Mo.).

BSU1 and BIN2 = experiment: Co-immunoprecipitation of BSU1-YFP and BIN2-myc after BL treatment; assay type: in vivo, Arabidopsis; settings: plants grown on BRZ, 10 μM MG-132 1 hr, 0.2 μM BL 15 min
Method: as §1

BIN2 [8] = biological target: T1, BIN2; experiment: PP1 dephosphorylation of GST-tagged BIN2; assay type: biochemical; settings: PP1 purified from E. coli
Method: (§2) It was next examined whether the mammalian homolog to BSU1, PP1, would dephosphorylate BIN2. A GST-tagged BIN2 was isolated from cells and incubated with PP1 purified from E. coli cells expressing the phosphatase.

PP1 = biological target: T2, PP1 (Homo sapiens, UniProt P36873); experiment: Inhibition of PP1 activity on BIN2; assay type: biochemical, mammalian
T2 construct: made in house; host or cells: E. coli
T2 sequence (P36873 whole entry): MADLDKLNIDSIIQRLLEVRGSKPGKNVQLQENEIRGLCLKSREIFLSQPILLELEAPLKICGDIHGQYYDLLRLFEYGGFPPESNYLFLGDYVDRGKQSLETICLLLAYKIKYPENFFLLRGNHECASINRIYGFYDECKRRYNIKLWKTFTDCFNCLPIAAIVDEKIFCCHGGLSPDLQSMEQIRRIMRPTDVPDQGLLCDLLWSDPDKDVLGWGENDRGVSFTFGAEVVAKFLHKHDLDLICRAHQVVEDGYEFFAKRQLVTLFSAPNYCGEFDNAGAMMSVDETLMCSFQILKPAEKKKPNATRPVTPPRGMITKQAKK
Method: as §2

CC(C)[C@H](C)[C@@H](O)[C@H](O)[C@@H](C)[C@H]1CC[C@H]2[C@@H]3COC(=O)[C@H]4C[C@H](O)[C@H](O)C[C@]4(C)[C@H]3CC[C@]12C [BL, brassinolide]
phosphorylation of Tyr200 of wild type BIN2 or BIN2-myc in plants (BIN2 [1]): reduced the phosphorylation of Tyr200 | degradation of BIN2 and bin2-1 (BIN2 [2]; transgenic plants, 0.25 μM BL for 30 min): induces degradation of BIN2 but not bin2-1 | AtSK12 protein stability (AtSK12 [3]): destabilized | phosphorylation of AtSK12 Tyr233 (AtSK12 [4]): greatly reduced phosphorylation of AtSK12 Tyr233 | level of BIN2 and bin2-1 proteins (BIN2 [5]): reduces the level of BIN2 but not bin2-1 proteins | BIN2-inhibiting activity of BSU1-YFP from BL-treated plants (BIN2 [6]): more effective inhibition of BIN2 phosphorylation of BZR1 | phosphorylation forms of epitope-tagged BIN2 protein (BIN2 [7]): caused disappearance of the acidic forms and an increase of the basic forms | interaction of BSU1 and BIN2 (BSU1 and BIN2): BR-induced interaction of BSU1 and BIN2

CC(C)C[C@@H](C=O)NC(=O)[C@H](CC(C)C)NC(=O)[C@H](CC(C)C)NC(=O)OCc1ccccc1 [MG132] (Cbz-Leu-Leu-Leu-aldehyde)
BR-induced BIN2 depletion (BIN2 [2]; proteasome inhibitor, 10 μM): prevents BR-induced BIN2 depletion

CC(O)(c1ccccc1)C(Cc1ccc(Cl)cc1)n1cncn1 (stereo not drawn) [brassinazole]
AtSK12 protein stability (AtSK12 [3]): stabilized

PP1: mammalian homolog to BSU1, protein phosphatase-1, purified from E. coli
dephosphorylation of BIN2 tyrosine200 (BIN2 [8]): increased dephosphorylation of BIN2 tyrosine200

manganese chloride
enzymatic activity of PP1 on BIN2 (PP1): also inhibited the enxymatic activity of PP1 on BIN2

— patent publication US20120322150A1, “Mechanism and Method for Regulating Glycogen Synthase Kinase 3 (GSK3)-Related Kinases” (CARNEGIE INSTITUTION OF WASHINGTON, priority 2009, published 2012)
